From patent US8410287B2 (McNeil-PPC, Inc., priority 2010, dated 2013)
One block for each compound: values may come before it.

What was measured:
TGA = type: physicochemical
[1] = Dynamic Vapor Sorption (DVS) moisture sorption analysis; type: physicochemical
Experimental: Moisture sorption analysis was performed using a Dynamic Vapor Sorption apparatus (Surface Measurement Systems, Monarch Beach, Calif.). Each sample was placed in a clean glass crucible and equilibrated in the apparatus at a specified RH level. Varying the flow rates of dry nitrogen gas and saturated wet nitrogen gas streams controlled RH; the total combined flow rate was kept constant at 200 standard […] per minute. After initial equilibration, RH was varied and change in mass was recorded over time as an indication of moisture sorption. Mass equilibration at each humidity level was determined as a change in mass less than ±2×10^−5 grams over a time interval of 1 minute (dm/dt of 0.002% min). After the assay, the change in mass was mathematically converted to water molar equivalents per dry compound molar equivalent.
The dynamic vapor sorption profiles were measured starting with Cel-NaPG at 0% RH, and for Cel-NaPG(H2O)3 beginning at 20% RH to avoid dehydrating it prior to the first absorption cycle. The profiles are shown in FIG. 12 alongside PXRD patterns for samples of Cel-NaPG stored in controlled humidity chambers for 1-2 days.

[2] = storage in controlled humidity chambers monitored by PXRD (physical form stability); type: physicochemical
Text: Indeed, understanding the behavior of the salt form before the single crystal structure was solved was challenging in that the powder patterns seemed to change almost daily, even when powders were equilibrated in humidity chambers prior to measurement. […] Consistent powder patterns were obtained by two distinct methods. In the first method, powder was filled into 0.5 mm capillary tubes, equilibrated in controlled humidity chambers for 1 week, sealed with silicone grease immediately upon removal from the humidity chambers, and measured immediately with a transmission powder X-ray diffractometer. In the second, a sample was monitored by a reflectance mode powder X-ray diffractometer fitted with a controlled humidity stage. The two methods were complimentary. The capillary method provided high resolution patterns without preferred orientation effects. However, the humidity control was coarse and was limited to conditions that could be achieved with standard saturated salt solutions.
The rate of conversion to Cel-NaPG(H2O)3 is very slow at 18% RH and increases to the point where conversion takes less than one day at 54% RH or higher.

[3] = 1H NMR determination of Cel:PG ratio after exposure to 0% RH and 40% RH in the DVS; type: physicochemical
Experimental: ^1H NMR measurements were conducted using a Varian 400 MHz spectrometer with averaging of 128 scans. Samples were prepared as 10 mg/ml solutions of Cel in CDCl3.
Increased lability and loss of PG during the transition from anhydrous to trihydrate was believed to be the most likely explanation for the weight loss. ^1H NMR was used to determine whether the PG solvate is lost continuously throughout the humidity cycle or only during change in the hydration state. Cel-NaPG and Cel-NaPG(H2O)3 were exposed to 0% RH and 40% RH in the DVS and then dissolved in methanol-d4 for NMR analysis. The Cel:PG ratio was stable at 1/1 for Cel-NaPG(H2O)3 after treatment for either four hours at 40% RH or 18 hours at 0% RH. […] Since the Cel-NaPG(H2O)3 has a wide range of physical stability, conversion from the trihydrate to the anhydrous and then back to the trihydrate should be a rare event. In a closed system such as a packaged tablet, PG should not be lost as easily as it is in the dynamic environment of the DVS where gases continuously flow over the sample to carry away any volatile components.

[4] = cited from earlier work
physchem = conditions: aqueous sodium hydroxide solution, pH 12, aqueous buffer
[5] = stability toward air: neutralization of the salt by CO2 and water to neutral Cel (Cel-III); type: physicochemical
Text: The behavior was first observed when using compressed air instead of nitrogen in the dynamic vapor sorption experiment, but it was also clear in samples stored open in controlled humidity chambers. The neutralization was minimized to get clean PXRD patterns by including small vials of concentrated NaOH solution within the closed humidity chambers to remove CO2 from the air. […] Throughout the conversion, both Cel-III and the sodium salt are clearly observed by PXRD with Cel-III growing slowly over time.

temperature until which PG is retained (TGA) (TGA; under a flow of nitrogen): approximately 80 °C
water gained (TGA) (TGA; within 1 day, stored in a 38% RH chamber): about 2 equiv
additional weight loss after going through the entire DVS profile ([1]; 25° C., after desorption): 2 % weight
weight gain during adsorption ([1]; DVS profile started at 0% RH, 25° C.): ~14 % weight
time for conversion to Cel-NaPG(H2O)3 ([2]; 54% RH or higher): less than one
PG lost ([3]; over four hours at 40% RH): 8.2%
stability of PG content ([3]; stream of dry nitrogen for 18 hours (0% RH)): remaining stable
SMILES: CC(O)CO.Cc1ccc(-c2cc(C(F)(F)F)nn2-c2ccc(S([NH-])(=O)=O)cc2)cc1.[Na+] [Cel-NaPG]

solubility (physchem): ≥ 380 mg/mL
SMILES: Cc1ccc(-c2cc(C(F)(F)F)nn2-c2ccc(S(N)(=O)=O)cc2)cc1 [celecoxib]
aqueous solubility of celecoxib at physiological pH [4]: < 0.5 μg/ml

conversion to neutral Cel ([5]; after 4 days at 45 66% RH): no conversion was observed
reversible weight gain ([1]; between 10 and 70% RH at 25° C.): 1.2 % weight
loss of dry weight after a single humidity cycle ([1]; started at 20% RH, single humidity cycle): no loss was seen
conversion to Cel-NaPG (dehydration) ([2]; 4 days of storage over the 18% RH salt bath): no conversion to Cel-NaPG
SMILES: CC(O)CO.Cc1ccc(-c2cc(C(F)(F)F)nn2-c2ccc(S([NH-])(=O)=O)cc2)cc1.O.O.O.[Na+] [Cel-NaPG(H2O)3, propylene glycol solvate of celecoxib sodium trihydrate]
reaction with CO2 and water in the air [5]: resistant to reaction with CO2 and water in the air

physical stability in a sealed vial ([5]; sealed vial): physically stable
SMILES: Cc1ccc(-c2cc(C(F)(F)F)nn2-c2ccc(S(N)(=O)=O)cc2)cc1 [Cel-Na(H2O)x]
